Reference: US8686184B2, “Neprilysin inhibitors” (Theravance, Inc., priority 2011, dated 2014)

These molecules were tested against T1, human neprilysin (EC 3.4.24.11; NEP) (Homo sapiens, UniProt P08473) (assay: In vitro enzyme inhibition assay at human NEP (fluorogenic peptide substrate)). Conditions: recombinant human NEP; 37° C.; substrate Mca-D-Arg-Arg-Leu-Dap-(Dnp)-OH 10 μM; values given as ranges; read-out: pKi values at human NEP (converted).
T1 construct: purchased R&D Systems, Minneapolis, Minn; 1182-ZN
T1 sequence (P08473 52-750 limits assumed): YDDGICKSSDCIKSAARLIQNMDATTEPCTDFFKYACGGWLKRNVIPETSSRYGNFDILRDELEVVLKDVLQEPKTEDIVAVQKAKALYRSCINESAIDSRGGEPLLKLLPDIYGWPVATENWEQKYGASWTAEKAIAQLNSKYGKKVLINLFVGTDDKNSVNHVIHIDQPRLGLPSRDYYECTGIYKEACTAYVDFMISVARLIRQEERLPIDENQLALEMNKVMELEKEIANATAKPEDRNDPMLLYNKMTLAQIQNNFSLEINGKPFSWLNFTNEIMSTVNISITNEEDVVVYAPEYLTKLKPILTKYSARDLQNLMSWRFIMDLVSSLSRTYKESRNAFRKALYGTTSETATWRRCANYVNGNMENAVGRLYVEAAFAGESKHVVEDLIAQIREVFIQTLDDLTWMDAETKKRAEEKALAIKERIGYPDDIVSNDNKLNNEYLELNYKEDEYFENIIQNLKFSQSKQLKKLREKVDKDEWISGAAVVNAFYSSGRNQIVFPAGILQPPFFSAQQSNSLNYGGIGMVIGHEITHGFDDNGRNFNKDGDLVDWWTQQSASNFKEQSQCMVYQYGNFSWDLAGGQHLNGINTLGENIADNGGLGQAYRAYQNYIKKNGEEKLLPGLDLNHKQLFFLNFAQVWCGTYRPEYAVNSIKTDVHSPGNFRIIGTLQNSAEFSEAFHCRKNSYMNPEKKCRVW
Assay type: biochemical
Method: In vitro Assays for the Quantitation of Inhibitor Potencies at Human and Rat NEP, and Human ACE
The inhibitory activities of compounds at human and rat neprilysin (EC 3.4.24.11; NEP) and human angiotensin converting enzyme (ACE) were determined using in vitro assays as described below.
Recombinant human NEP and recombinant human ACE were obtained commercially (R&D Systems, Minneapolis, Minn., catalog numbers 1182-ZN and 929-ZN, respectively). The fluorogenic peptide substrate Mca-D-Arg-Arg-Leu-Dap-(Dnp)-OH (Medeiros et al. (1997) Braz. J. Med. Biol. Res. 30:1157-62; Anaspec, San Jose, Calif.) and Abz-Phe-Arg-Lys(Dnp)-Pro-OH (Araujo et al. (2000) Biochemistry 39:8519-8525; Bachem, Torrance, Calif.) were used in the NEP and ACE assays respectively.
The assays were performed in 384-well white opaque plates at 37° C. using the fluorogenic peptide substrates at a concentration of 10 μM in Assay Buffer (NEP: 50 mM HEPES, pH 7.5, 100 mM NaCl, 0.01% polyethylene glycol sorbitan monolaurate (Tween-20), 10 μM ZnSO4; ACE: 50 mM HEPES, pH 7.5, 100 mM NaCl, 0.01% Tween-20, 1 μM ZnSO4).
Test compounds were assayed over the range of concentrations from 10 μM to 20 pM. Test compounds were added to the enzymes and incubated for 30 minute at 37° C. prior to initiating the reaction by the addition of substrate. Reactions were terminated after 20 minutes of incubation at 37° C. by the addition of glacial acetic acid to a final concentration of 3.6% (v/v).
Plates were read on a fluorometer with excitation and emission wavelengths set to 320 nm and 405 nm, respectively Inhibition constants were obtained by nonlinear regression of the data using the equation (GraphPad Software, Inc., San Diego, Calif.): v=v0/[1+(I/K′)] where v is the reaction rate, v0 is the uninhibited reaction rate, I is the inhibitor concentration and K′ is the apparent inhibition constant.
Compounds of the invention were tested in this assay and found to have pKi values at human NEP as follows.

Question: How did the Ki turn out when O=C(N[C@H](Cc1ccccc1)[C@@H](O)C(=O)O)c1cccc(-c2cc(F)ccc2C(=O)O)c1 [Example 10-14, 3′-((1R,2R)-1-Benzyl-2-carboxy-2-hydroxy-ethylcarbamoyl)-5-fluoro-biphenyl-2-carboxylic acid] was run?
Answer: 12.6 to 100 nM

Question: Which Ki does the source give for Cc1ccc(C(=O)N[C@H](Cc2ccccc2)[C@@H](O)C(=O)O)cc1-c1ccccc1C(=O)O [Example 10-15, 5′-((1R,2R)-1-Benzyl-2-carboxy-2-hydroxy-ethylcarbamoyl)-2′-methyl-biphenyl-2-carboxylic acid] here?
Answer: 1.26 to 10 nM

Question: CC(C)c1ccc(C(=O)N[C@H](Cc2ccccc2)[C@@H](O)C(=O)O)cc1-c1ccccc1C(=O)O [Example 10-17, 5′-((1R,2R)-1-Benzyl-2-carboxy-2-hydroxy-ethylcarbamoyl)-2′-isopropyl-biphenyl-2-carboxylic acid] was tested. Which Ki did it give?
Answer: 1.26 to 10 nM

Question: With CCc1ccc(C(=O)N[C@H](Cc2ccccc2)[C@@H](O)C(=O)O)cc1-c1ccccc1C(=O)O [Example 10-19, 5′-((1R,2R)-1-Benzyl-2-carboxy-2-hydroxy-ethylcarbamoyl)-2′-ethyl-biphenyl-2-carboxylic acid] as the molecule, how does the Ki read?
Answer: 1.26 to 10 nM

Question: Cc1ccc(C(=O)N[C@H](Cc2ccccc2)[C@@H](O)C(=O)O)cc1-c1ccccc1CC(=O)O [Example 10-20, (2R,3R)-3-[(2′-Carboxymethyl-6-methyl-biphenyl-3-carbonyl)-amino]-2-hydroxy-4-phenyl-butyric acid] was tested. Which Ki did it give?
Answer: 12.6 to 100 nM

Question: How did the Ki turn out when O=C(N[C@H](Cc1ccccc1)[C@@H](O)C(=O)O)c1ccc(N2CCOCC2)c(-c2ccccc2C(=O)O)c1 [Example 10-21, 5′-((1R,2R)-1-Benzyl-2-carboxy-2-hydroxy-ethylcarbamoyl)-2′-morpholin-4-yl-biphenyl-2-carboxylic acid] was run?
Answer: 12.6 to 100 nM

Question: Which Ki does the source give for O=C(N[C@H](Cc1ccccc1)[C@@H](O)C(=O)O)c1ccc(Cl)c(-c2ccccc2C(=O)O)c1 [Example 10-22, 5′-((1R,2R)-1-Benzyl-2-carboxy-2-hydroxy-ethylcarbamoyl)-2′-chloro-biphenyl-2-carboxylic acid] here?
Answer: 1.26 to 10 nM

Question: With O=C(N[C@H](Cc1ccccc1)[C@@H](O)C(=O)O)c1cc(O)cc(-c2ccccc2C(=O)O)c1 [Example 10-24, 3′-((1R,2R)-1-Benzyl-2-carboxy-2-hydroxy-ethylcarbamoyl)-5′-hydroxy-biphenyl-2-carboxylic acid] as the molecule, how does the Ki read?
Answer: 12.6 to 100 nM

Question: With O=C(N[C@H](Cc1ccccc1)[C@@H](O)C(=O)O)c1cc(F)cc(-c2ccccc2C(=O)O)c1 [Example 10-25, 3′-((1R,2R)-1-Benzyl-2-carboxy-2-hydroxy-ethylcarbamoyl)-5′-fluoro-biphenyl-2-carboxylic acid] as the molecule, how does the Ki read?
Answer: 1.26 to 10 nM

Question: O=C(N[C@H](Cc1ccccc1)[C@@H](O)C(=O)O)c1cc(Cl)cc(-c2ccccc2C(=O)O)c1 [Example 10-26, 3′-((1R,2R)-1-Benzyl-2-carboxy-2-hydroxy-ethylcarbamoyl)-5′-chloro-biphenyl-2-carboxylic acid] was tested. Which Ki did it give?
Answer: 1.26 to 10 nM

Question: Cc1cc(C(=O)N[C@H](Cc2ccccc2)[C@@H](O)C(=O)O)cc(-c2ccccc2C(=O)O)c1 [Example 10-27, 3′-((1R,2R)-1-Benzyl-2-carboxy-2-hydroxy-ethylcarbamoyl)-5′-methyl-biphenyl-2-carboxylic acid] was tested. Which Ki did it give?
Answer: 12.6 to 100 nM

Question: O=C(N[C@H](Cc1ccccc1)[C@@H](O)C(=O)O)c1ccc(-c2ccccc2)c(C(=O)O)c1 [Example 10-28, 4-((1R,2R)-1-Benzyl-2-carboxy-2-hydroxy-ethylcarbamoyl)-biphenyl-2-carboxylic acid] was tested. Which Ki did it give?
Answer: 12.6 to 100 nM

Question: How did the Ki turn out when O=C(O)c1cc(C(=O)N[C@H](Cc2ccccc2)[C@@H](O)C(=O)O)cc(-c2ccccc2)c1 [Example 10-29, 5-((1R,2R)-1-Benzyl-2-carboxy-2-hydroxy-ethylcarbamoyl)-biphenyl-3-carboxylic acid] was run?
Answer: 12.6 to 100 nM

Question: How did the Ki turn out when NS(=O)(=O)c1cccc(-c2cccc(C(=O)N[C@H](Cc3ccccc3)[C@@H](O)C(=O)O)c2)c1 [Example 10-30, (2R,3R)-2-Hydroxy-4-phenyl-3-[(3′-sulfamoyl-biphenyl-3-carbonyl)-amino]-butyric acid] was run?
Answer: 12.6 to 100 nM

Question: For O=C(N[C@H](Cc1ccccc1)[C@@H](O)C(=O)O)c1cccc(-c2cccc(-c3nnn[nH]3)c2)c1 [Example 10-31, (2R,3R)-2-Hydroxy-4-phenyl-3-{[3′-(1H-tetrazol-5-yl)-biphenyl-3-carbonyl]-amino}-butyric acid], which Ki is on record?
Answer: 12.6 to 100 nM

Question: CCc1ccc(C(=O)N[C@H](Cc2ccccc2)[C@@H](O)C(=O)O)cc1 [Example 10-32, (2R,3R)-3-(4-Ethyl-benzoylamino)-2-hydroxy-4-phenyl-butyric acid] was tested. Which Ki did it give?
Answer: 12.6 to 100 nM

Question: For CCCc1ccc(C(=O)N[C@H](Cc2ccccc2)[C@@H](O)C(=O)O)cc1 [Example 10-33, (2R,3R)-2-Hydroxy-4-phenyl-3-(4-propyl-benzoylamino)-butyric acid], which Ki is on record?
Answer: 12.6 to 100 nM

Question: For CC(C)c1ccc(C(=O)N[C@H](Cc2ccccc2)[C@@H](O)C(=O)O)cc1 [Example 10-34, (2R,3R)-2-Hydroxy-3-(4-isopropyl-benzoylamino)-4-phenyl-butyric acid], which Ki is on record?
Answer: 12.6 to 100 nM

Question: Which Ki does the source give for CCCCc1ccc(C(=O)N[C@H](Cc2ccccc2)[C@@H](O)C(=O)O)cc1 [Example 10-35, (2R,3R)-3-(4-Butyl-benzoylamino)-2-hydroxy-4-phenyl-butyric acid] here?
Answer: 12.6 to 100 nM

Question: With CC(C)Cc1ccc(C(=O)N[C@H](Cc2ccccc2)[C@@H](O)C(=O)O)cc1 [Example 10-36, (2R,3R)-2-Hydroxy-3-(4-isobutyl-benzoylamino)-4-phenyl-butyric acid] as the molecule, how does the Ki read?
Answer: 12.6 to 100 nM

Question: CCCCCc1ccc(C(=O)N[C@H](Cc2ccccc2)[C@@H](O)C(=O)O)cc1 [Example 10-38, (2R,3R)-2-Hydroxy-3-(4-pentyl-benzoylamino)-4-phenyl-butyric acid] was tested. Which Ki did it give?
Answer: 12.6 to 100 nM

Question: For O=C(N[C@H](Cc1ccccc1)[C@@H](O)C(=O)O)c1ccc(C2CC2)cc1 [Example 10-39, (2R,3R)-3-(4-Cyclopropyl-benzoylamino)-2-hydroxy-4-phenyl-butyric acid], which Ki is on record?
Answer: 12.6 to 100 nM

Question: With O=C(N[C@H](Cc1ccccc1)[C@@H](O)C(=O)O)c1ccc(C2CCCCC2)cc1 [Example 10-40, (2R,3R)-3-(4-Cyclohexyl-benzoylamino)-2-hydroxy-4-phenyl-butyric acid] as the molecule, how does the Ki read?
Answer: 12.6 to 100 nM

Question: Which Ki does the source give for CC1=NN(c2ccc(C(=O)N[C@H](Cc3ccccc3)[C@@H](O)C(=O)O)cc2)C(=O)C1 [Example 10-41, (2R,3R)-2-Hydroxy-3-[4-(3-methyl-5-oxo-4,5-dihydro-pyrazol-1-yl)-benzoylamino]-4-phenyl-butyric acid] here?
Answer: 12.6 to 100 nM

Question: For O=C(N[C@H](Cc1ccccc1)[C@@H](O)C(=O)O)c1ccc(-n2cccc2)cc1 [Example 10-43, (2R,3R)-2-Hydroxy-4-phenyl-3-(4-pyrrol-1-yl-benzoylamino)-butyric acid], which Ki is on record?
Answer: 12.6 to 100 nM

Question: With O=C(N[C@H](Cc1ccccc1)[C@@H](O)C(=O)O)c1ccc(Cn2cccc2)cc1 [Example 10-44, (2R,3R)-2-Hydroxy-4-phenyl-3-(4-pyrrol-1-ylmethyl-benzoylamino)-butyric acid] as the molecule, how does the Ki read?
Answer: 12.6 to 100 nM

Question: For Cc1nnnn1Cc1ccc(C(=O)N[C@H](Cc2ccccc2)[C@@H](O)C(=O)O)cc1 [Example 10-45, (2R,3R)-2-Hydroxy-3-[4-(5-methyl-tetrazol-1-ylmethyl)-benzoylamino]-4-phenyl-butyric acid], which Ki is on record?
Answer: 12.6 to 100 nM

Question: With O=C(N[C@H](Cc1ccccc1)[C@@H](O)C(=O)O)c1ccc(Cn2ccnc2)cc1 [Example 10-46, (2R,3R)-2-Hydroxy-3-(4-imidazol-1-ylmethyl-benzoylamino)-4-phenyl-butyric acid] as the molecule, how does the Ki read?
Answer: 12.6 to 100 nM

Question: How did the Ki turn out when O=C(N[C@H](Cc1ccccc1)[C@@H](O)C(=O)O)c1ccc(CCn2ccnc2)cc1 [Example 10-47, (2R,3R)-2-Hydroxy-3-[4-(2-imidazol-1-yl-ethyl)-benzoylamino]-4-phenyl-butyric acid] was run?
Answer: 12.6 to 100 nM

Question: Which Ki does the source give for O=C(O)Cc1ccccc1-c1ccc(C(=O)N[C@H](Cc2ccccc2)[C@@H](O)C(=O)O)cc1 [Example 10-48, (2R,3R)-3-[(2′-Carboxymethyl-biphenyl-4-carbonyl)-amino]-2-hydroxy-4-phenyl-butyric acid] here?
Answer: 1.26 to 10 nM

Question: With O=C(O)Cc1cccc(-c2ccc(C(=O)N[C@H](Cc3ccccc3)[C@@H](O)C(=O)O)cc2)c1 [Example 10-49, (2R,3R)-3-[(3′-Carboxymethyl-biphenyl-4-carbonyl)-amino]-2-hydroxy-4-phenyl-butyric acid] as the molecule, how does the Ki read?
Answer: 12.6 to 100 nM

Question: Which Ki does the source give for O=C(O)Cc1ccc(-c2ccc(C(=O)N[C@H](Cc3ccccc3)[C@@H](O)C(=O)O)cc2)cc1 [Example 10-50, (2R,3R)-3-[(4′-Carboxymethyl-biphenyl-4-carbonyl)-amino]-2-hydroxy-4-phenyl-butyric acid] here?
Answer: 12.6 to 100 nM
